Source: publication PMC10673995, “Discovery of a novel cardiac-specific myosin modulator using artificial intelligence-based virtual screening” (Nature Communications, 2023)
Where “and” joins values, the source holds several entries; their conditions need not be identical. Identical values can stand only once.

Molecular target: bovine cardiac myofibrils (Bos taurus, UniProt Q9BE39)
Assay: mant-ATP chase single nucleotide turnover, cardiac myofibrils;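 further: bovine cardiac myofibrils at 1 mg/mL in PIPES buffer, 20 µM mant-ATP aged 1 min then chased with 20 mM ATP, fluorescence (ex 360, em 450 nm) read every second for 15 min at 25 °C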
[1] = Cardiac myofibrils, individual replicates

bovine cardiac myofibrils, sequence (Q9BE39 whole entry): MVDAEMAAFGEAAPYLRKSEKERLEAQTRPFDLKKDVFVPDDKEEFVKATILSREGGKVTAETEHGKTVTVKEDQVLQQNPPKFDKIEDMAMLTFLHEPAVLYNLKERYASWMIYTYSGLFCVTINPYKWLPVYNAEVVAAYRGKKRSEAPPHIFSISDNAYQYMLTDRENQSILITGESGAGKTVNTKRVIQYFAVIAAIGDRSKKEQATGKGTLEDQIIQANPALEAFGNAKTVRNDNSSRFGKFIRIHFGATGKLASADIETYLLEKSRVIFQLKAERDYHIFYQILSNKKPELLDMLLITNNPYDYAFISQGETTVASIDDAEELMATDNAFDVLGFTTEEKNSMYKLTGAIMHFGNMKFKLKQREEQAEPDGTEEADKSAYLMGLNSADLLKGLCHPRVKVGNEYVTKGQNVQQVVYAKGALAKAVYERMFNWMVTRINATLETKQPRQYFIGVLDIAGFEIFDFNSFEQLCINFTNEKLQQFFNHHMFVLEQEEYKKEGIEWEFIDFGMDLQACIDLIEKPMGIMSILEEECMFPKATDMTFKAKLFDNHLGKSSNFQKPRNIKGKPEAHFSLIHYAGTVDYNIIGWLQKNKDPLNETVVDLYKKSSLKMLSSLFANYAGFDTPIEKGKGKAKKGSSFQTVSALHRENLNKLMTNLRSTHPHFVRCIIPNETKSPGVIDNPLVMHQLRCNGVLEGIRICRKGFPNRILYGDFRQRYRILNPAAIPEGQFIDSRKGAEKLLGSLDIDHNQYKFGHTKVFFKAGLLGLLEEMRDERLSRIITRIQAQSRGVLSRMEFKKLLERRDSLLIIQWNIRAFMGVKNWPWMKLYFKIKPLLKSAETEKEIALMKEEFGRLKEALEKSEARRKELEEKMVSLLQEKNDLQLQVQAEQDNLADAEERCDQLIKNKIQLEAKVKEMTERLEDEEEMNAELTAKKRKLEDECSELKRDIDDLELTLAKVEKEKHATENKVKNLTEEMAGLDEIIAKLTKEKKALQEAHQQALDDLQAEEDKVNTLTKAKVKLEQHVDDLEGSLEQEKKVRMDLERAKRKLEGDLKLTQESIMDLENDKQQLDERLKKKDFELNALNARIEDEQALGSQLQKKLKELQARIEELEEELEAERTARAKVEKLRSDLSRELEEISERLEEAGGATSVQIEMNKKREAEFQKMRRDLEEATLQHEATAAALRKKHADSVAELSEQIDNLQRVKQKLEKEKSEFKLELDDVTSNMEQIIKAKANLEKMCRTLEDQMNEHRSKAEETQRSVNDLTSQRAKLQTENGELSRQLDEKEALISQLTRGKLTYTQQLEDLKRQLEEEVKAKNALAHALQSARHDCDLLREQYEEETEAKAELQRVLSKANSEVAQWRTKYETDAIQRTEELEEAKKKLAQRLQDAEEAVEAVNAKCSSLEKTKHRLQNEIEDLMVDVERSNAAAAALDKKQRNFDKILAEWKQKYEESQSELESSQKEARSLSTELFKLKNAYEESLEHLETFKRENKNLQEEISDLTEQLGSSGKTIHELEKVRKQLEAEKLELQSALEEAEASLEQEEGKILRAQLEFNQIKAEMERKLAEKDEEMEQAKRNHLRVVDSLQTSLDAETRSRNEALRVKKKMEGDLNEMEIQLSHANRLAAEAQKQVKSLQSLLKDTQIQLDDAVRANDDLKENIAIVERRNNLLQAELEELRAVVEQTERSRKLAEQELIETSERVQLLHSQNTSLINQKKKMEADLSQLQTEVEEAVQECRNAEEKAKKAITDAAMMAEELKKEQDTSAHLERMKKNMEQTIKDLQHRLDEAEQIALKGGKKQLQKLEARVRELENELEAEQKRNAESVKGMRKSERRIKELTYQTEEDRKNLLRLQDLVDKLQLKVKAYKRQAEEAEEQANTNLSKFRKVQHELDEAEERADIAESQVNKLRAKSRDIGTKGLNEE
bovine cardiac myofibrils, sequence (P85100 whole entry partner): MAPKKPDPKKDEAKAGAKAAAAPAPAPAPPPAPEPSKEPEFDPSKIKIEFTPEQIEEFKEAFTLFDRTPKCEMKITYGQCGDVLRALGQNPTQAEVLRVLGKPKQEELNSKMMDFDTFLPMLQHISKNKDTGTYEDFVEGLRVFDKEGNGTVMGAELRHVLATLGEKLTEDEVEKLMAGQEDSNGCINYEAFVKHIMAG
bovine cardiac myofibrils, sequence (Q3SZE5 whole entry partner): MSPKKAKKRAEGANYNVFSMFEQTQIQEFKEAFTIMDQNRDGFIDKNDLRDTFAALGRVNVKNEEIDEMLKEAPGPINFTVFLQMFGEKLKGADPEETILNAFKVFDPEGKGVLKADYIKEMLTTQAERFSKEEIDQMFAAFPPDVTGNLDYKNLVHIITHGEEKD
Description: We used systems of increasing complexity ranging from the isolated cardiac myosin motor domains (Fig. 3a) to synthetic thick filaments formed from purified full-length bovine cardiac myosin (Fig. 3b) and bovine cardiac myofibrils as substrates in the chase assays (Fig. 3c). In contrast to the isolated myosin motors, synthetic thick filaments contain two myosin head domains per molecule connected via their coiled-coil tail.
Synthetic thick filaments were freshly prepared by diluting full-length bovine cardiac myosin stock into assay buffer (composition in mmol L^−1: 15 PIPES pH 7, 5 MgCl2, 1 DTT) and incubation on ice for 2 h. Bovine myosin S1 and synthetic thick filament concentrations were adjusted to 0.4 μmol L^−1 with assay buffer and 40 μL aliquoted into individual wells of a black 384-well plate (Greiner). Mant-ATP (JenaBioscience) was added to each well to a final concentration of 0.4 μmol L^−1 using an automated injector unit in a ClarioStar Plate Reader (BMG LabTech) and the system was allowed to age for 1 min. The chase phase was started by adding a final concentration of 2 mmol L^−1 ATP using a second automated injector unit. Fluorescence intensity from each well was constantly measured for 15 min every 1 sec at 25 °C with the following settings: excitation at 360 nm with a 20 nm bandwidth and emission at 450 nm with a 20 nm bandwidth. For experiments with cardiac myofibrils the concentration was adjusted to 1 mg m L^−1, and the mant-ATP and ATP concentrations were increased to 20 μmol L^−1 and 20 mmol L^−1, respectively.

CC(C)n1c(=O)cc(N[C@@H](C)c2ccccc2)[nH]c1=O [Mavacamten]
effect on the rate of the fast phase: no effect
kfast (2 μmol L^−1 Mavacamten or 20 μmol L^−1 F10, control 0.0719 ± 0.0193): 0.0637 ± 0.0271 s⁻¹
kfast [1]: 0.1448 s⁻¹ and 0.0188 s⁻¹ and 0.01818 s⁻¹ and 0.1128 s⁻¹ and 0.02375 s⁻¹
kslow [1]: 0.005449 s⁻¹ and 0.0002437 s⁻¹ and 0.001429 s⁻¹ and 0.00295 s⁻¹ and 0.003851 s⁻¹
slow phase [1]: 76.35% and 29.71% and 40.4% and 38.11% and 48.47%
Bar graph (Figure 3c, individual replicates): 76.35 and 29.71 and 40.4 and 38.11 and 48.47
Representative Traces (t [s] = 6): 0.8107
Representative Traces (t [s] = 7): 0.8334
Representative Traces (t [s] = 8): 0.8024
Representative Traces (t [s] = 9): 0.8319
Representative Traces (t [s] = 10): 0.793
Representative Traces (t [s] = 11): 0.7299
Representative Traces (t [s] = 12): 0.7382
Representative Traces (t [s] = 13): 0.7429
Representative Traces (t [s] = 14): 0.7007
Representative Traces (t [s] = 96): 0.4149
Representative Traces (t [s] = 97): 0.3828
Representative Traces (t [s] = 98): 0.3883
Representative Traces (t [s] = 99): 0.382
Representative Traces (t [s] = 100): 0.393
Representative Traces (t [s] = 101): 0.411
Representative Traces (t [s] = 102): 0.3936
Representative Traces (t [s] = 103): 0.355
Representative Traces (t [s] = 104): 0.403
Representative Traces (t [s] = 105): 0.3774
Representative Traces (t [s] = 106): 0.4119
Representative Traces (t [s] = 107): 0.4038
Representative Traces (t [s] = 108): 0.3884
Representative Traces (t [s] = 109): 0.3828
Representative Traces (t [s] = 110): 0.3991
Representative Traces (t [s] = 111): 0.3974
Representative Traces (t [s] = 112): 0.3704
Representative Traces (t [s] = 113): 0.3729
Representative Traces (t [s] = 114): 0.3757
Representative Traces (t [s] = 115): 0.3708
Representative Traces (t [s] = 116): 0.3829
Representative Traces (t [s] = 117): 0.3692
Representative Traces (t [s] = 118): 0.3929
Representative Traces (t [s] = 119): 0.3896
Representative Traces (t [s] = 120): 0.34
Representative Traces (t [s] = 121): 0.3562
Representative Traces (t [s] = 122): 0.3276
Representative Traces (t [s] = 123): 0.3379
Representative Traces (t [s] = 124): 0.3372
Representative Traces (t [s] = 125): 0.3385
Representative Traces (t [s] = 126): 0.3527
Representative Traces (t [s] = 127): 0.3498
Representative Traces (t [s] = 128): 0.3795
Representative Traces (t [s] = 129): 0.3503
Representative Traces (t [s] = 130): 0.3889
Representative Traces (t [s] = 131): 0.3403
Representative Traces (t [s] = 132): 0.3551
Representative Traces (t [s] = 133): 0.3408
Representative Traces (t [s] = 134): 0.3174
Representative Traces (t [s] = 135): 0.3637
Representative Traces (t [s] = 136): 0.3269
Representative Traces (t [s] = 137): 0.3446
Representative Traces (t [s] = 138): 0.322
Representative Traces (t [s] = 140): 0.3437
Representative Traces (t [s] = 141): 0.3145
Representative Traces (t [s] = 142): 0.3341
Representative Traces (t [s] = 143): 0.3342
Representative Traces (t [s] = 144): 0.3241
Representative Traces (t [s] = 145): 0.353
Representative Traces (t [s] = 146): 0.3167
Representative Traces (t [s] = 147): 0.3169
Representative Traces (t [s] = 150): 0.3343
Representative Traces (t [s] = 151): 0.3323
Representative Traces (t [s] = 152): 0.3258
Representative Traces (t [s] = 153): 0.3279
Representative Traces (t [s] = 154): 0.3292
Representative Traces (t [s] = 155): 0.3236
Representative Traces (t [s] = 156): 0.3153
Representative Traces (t [s] = 157): 0.312
Representative Traces (t [s] = 158): 0.3484
Representative Traces (t [s] = 159): 0.3282
Representative Traces (t [s] = 160): 0.2877
Representative Traces (t [s] = 161): 0.3298
Representative Traces (t [s] = 162): 0.3159
Representative Traces (t [s] = 164): 0.2984
Representative Traces (t [s] = 165): 0.3474
Representative Traces (t [s] = 166): 0.3344
Representative Traces (t [s] = 167): 0.3033
Representative Traces (t [s] = 168): 0.3319
Representative Traces (t [s] = 169): 0.3401
Representative Traces (t [s] = 170): 0.3298
Representative Traces (t [s] = 171): 0.3174
Representative Traces (t [s] = 172): 0.335
Representative Traces (t [s] = 173): 0.2879
Representative Traces (t [s] = 174): 0.2744
Representative Traces (t [s] = 175): 0.3144
Representative Traces (t [s] = 177): 0.3003
Representative Traces (t [s] = 180): 0.3087
Representative Traces (t [s] = 181): 0.2965
Representative Traces (t [s] = 182): 0.2814
Representative Traces (t [s] = 183): 0.3178
Representative Traces (t [s] = 184): 0.3078
Representative Traces (t [s] = 185): 0.2721
Representative Traces (t [s] = 186): 0.3115
Representative Traces (t [s] = 187): 0.2704
Representative Traces (t [s] = 188): 0.2836
Representative Traces (t [s] = 189): 0.2816
Representative Traces (t [s] = 190): 0.2901
Representative Traces (t [s] = 191): 0.3081
Representative Traces (t [s] = 192): 0.2598
Representative Traces (t [s] = 193): 0.2745
